# Assay results reported in patent US20250263436A1, “BROAD-SPECTRUM ANTIVIRAL DRUG FOR ENTEROVIRUS, AND APPLICATION” (WUHAN INSTITUTE OF VIROLOGY, CHINESE ACADEMY OF SCIENCES, priority 2020, published 2025).
# “And” between values parts separate entries of the source, which are not always exact repeats. Identical values can stand only once. Where no end group is shown, it is not given here.
# Tested on: EV71
# Test: Inhibitory activity on EV71 in RD cells by CCK8 method
# Type: cell-based, enterovirus 71 (EV71)
# Details: for IC50: EV71 in RD cells, CCK8 method; for Inhibition rate on EV71 virus (%): RD cells, 0.1 MOI, 24 h, CCK8
# Protocol: (1) RD cells were plated in a 96-well plate at 100 μL per well.
# (2) When the cells grew to a confluence of 70%-80%, the DMEM medium containing 10% serum was replaced with a DMEM medium containing 2% serum.
# (§1) (3) The polypeptide drug was gradiently diluted with the DMEM containing 2% FBS into concentrations of 0.15625 μM, 0.3125 μM, 0.625 μM, 1.25 μM, 2.5 μM, and 5 μM, and then added to a new 96-well plate at 100 μL per well, with 3 replicate wells for each concentration.
# (4) The diluted virus was added to the above wells at 100 μL per well. The wells with no drug and no virus added and the wells with no drug but virus added were set as controls respectively, with a final concentration of virus of 0.1 MOI.
# (4) The mixture was transferred into the 96-well plate plated with cells for another 24 h of culture, and the inhibitory activity of the polypeptide on the virus was determined by a CCK8 kit.
# (5) The inhibition rates of different concentrations of the polypeptides on virus infection were calculated according to a calculation formula of: inhibition rate of polypeptide=(well with drug-well with virus)×100%/(well with no drug-well with virus).
# as §1, with “concentration. (4) The diluted virus was added to the above wells at 100 μL per well. The wells with no drug and no virus added and the wells with no drug but virus added were set as controls respectively, with a final concentration of virus of 0.1 MOI.” for “concentration.”
Compound,IC50 [nM],Inhibition rate on EV71 virus (%) (polypeptide 0.15625 μM),Inhibition rate on EV71 virus (%) (polypeptide 0.3125 μM),Inhibition rate on EV71 virus (%) (polypeptide 0.625 μM),Inhibition rate on EV71 virus (%) (polypeptide 1.25 μM),Inhibition rate on EV71 virus (%) (polypeptide 2.5 μM),Inhibition rate on EV71 virus (%) (polypeptide 5 μM)
CC[C@H](C)[C@H](NC(=O)[C@H](C)NC(=O)[C@H](CO)NC(=O)[C@H](CCCNC(=N)N)NC(=O)[C@H](CC(N)=O)NC(=O)[C@H](CC(N)=O)NC(=O)[C@H](Cc1ccc(O)cc1)NC(=O)[C@H](CCC(=O)O)NC(=O)CNC(=O)[C@H](CO)NC(=O)CNC(=O)[C@H](CCCNC(=N)N)NC(=O)[C@H](CCCNC(=N)N)NC(=O)[C@H](CCCNC(=N)N)NC(=O)[C@H](CCC(N)=O)NC(=O)[C@H](CCCNC(=N)N)NC(=O)[C@H](CCCNC(=N)N)NC(=O)[C@H](CCCCN)NC(=O)[C@H](CCCCN)NC(=O)[C@H](CCCNC(=N)N)NC(=O)CNC(=O)[C@@H](N)Cc1ccc(O)cc1)C(=O)NCC(=O)N[C@@H](CC(N)=O)C(=O)N[C@H](C(=O)N[C@H](C(=O)N[C@@H](CCC(=O)O)C(=O)N[C@@H](C)C(=O)N[C@@H](CC(C)C)C(=O)N[C@@H](Cc1ccccc1)C(=O)N[C@@H](CCC(N)=O)C(=O)O)[C@@H](C)CC)[C@@H](C)O [EQ],1830,6.885% and 4.675% and 10.9434%,10.2126% and 12.8194% and 16.4536%,21.5745% and 20.64% and 25.9399%,31.5814% and 30.7778% and 32.9503%,62.8263% and 54.1779% and 55.7124%,86.8541% and 90.3885% and 78.0023%
CC[C@H](C)[C@H](NC(=O)[C@H](C)NC(=O)[C@H](CO)NC(=O)[C@H](CCCNC(=N)N)NC(=O)[C@H](CC(N)=O)NC(=O)[C@H](CC(N)=O)NC(=O)CNC(=O)[C@H](CO)NC(=O)CNC(=O)[C@H](CCCNC(=N)N)NC(=O)[C@H](CCCNC(=N)N)NC(=O)[C@H](CCCNC(=N)N)NC(=O)[C@H](CCC(N)=O)NC(=O)[C@H](CCCNC(=N)N)NC(=O)[C@H](CCCNC(=N)N)NC(=O)[C@H](CCCCN)NC(=O)[C@H](CCCCN)NC(=O)[C@H](CCCNC(=N)N)NC(=O)CNC(=O)[C@@H](N)Cc1ccc(O)cc1)C(=O)NCC(=O)N[C@@H](CC(N)=O)C(=O)N[C@H](C(=O)N[C@H](C(=O)N[C@@H](CCC(=O)O)C(=O)N[C@@H](C)C(=O)N[C@@H](CC(C)C)C(=O)N[C@@H](Cc1ccccc1)C(=O)N[C@@H](CCC(N)=O)C(=O)O)[C@@H](C)CC)[C@@H](C)O [NQ],1900,4.278% and 5.368% and 8.337%,11.5056% and 17.809% and 19.7228%,16.7886% and 21.2091% and 24.9365%,41.6538% and 40.8779% and 50.5607%,51.933% and 60.1502% and 57.7744%,60.6122% and 74.6708% and 75.3331%
CC[C@H](C)[C@H](NC(=O)[C@H](C)NC(=O)[C@H](CO)NC(=O)[C@H](CCCNC(=N)N)NC(=O)CNC(=O)[C@H](CO)NC(=O)CNC(=O)[C@H](CCCNC(=N)N)NC(=O)[C@H](CCCNC(=N)N)NC(=O)[C@H](CCCNC(=N)N)NC(=O)[C@H](CCC(N)=O)NC(=O)[C@H](CCCNC(=N)N)NC(=O)[C@H](CCCNC(=N)N)NC(=O)[C@H](CCCCN)NC(=O)[C@H](CCCCN)NC(=O)[C@H](CCCNC(=N)N)NC(=O)CNC(=O)[C@@H](N)Cc1ccc(O)cc1)C(=O)NCC(=O)N[C@@H](CC(N)=O)C(=O)N[C@H](C(=O)N[C@H](C(=O)N[C@@H](CCC(=O)O)C(=O)N[C@@H](C)C(=O)N[C@@H](CC(C)C)C(=O)N[C@@H](Cc1ccccc1)C(=O)N[C@@H](CCC(N)=O)C(=O)O)[C@@H](C)CC)[C@@H](C)O [RSQ],2600,1.471% and 6.588% and 2.826%,11.34% and 21.2746% and 16.4228%,18.633% and 25.8298% and 26.1918%,40.5468% and 36.4575% and 35.2676%,53.4848% and 40.7778% and 47.2122%,58.6022% and 68.9642% and 62.4952%
CC[C@H](C)[C@H](NC(=O)[C@H](C)NC(=O)[C@H](CO)NC(=O)CNC(=O)[C@H](CO)NC(=O)CNC(=O)[C@H](CCCNC(=N)N)NC(=O)[C@H](CCCNC(=N)N)NC(=O)[C@H](CCCNC(=N)N)NC(=O)[C@H](CCC(N)=O)NC(=O)[C@H](CCCNC(=N)N)NC(=O)[C@H](CCCNC(=N)N)NC(=O)[C@H](CCCCN)NC(=O)[C@H](CCCCN)NC(=O)[C@H](CCCNC(=N)N)NC(=O)CNC(=O)[C@@H](N)Cc1ccc(O)cc1)C(=O)NCC(=O)N[C@@H](CC(N)=O)C(=O)N[C@H](C(=O)N[C@H](C(=O)N[C@@H](CCC(=O)O)C(=O)N[C@@H](C)C(=O)N[C@@H](CC(C)C)C(=O)N[C@@H](Cc1ccccc1)C(=O)N[C@@H](CCC(N)=O)C(=O)O)[C@@H](C)CC)[C@@H](C)O [SAQ],2900,3.547% and 2.726% and 6.819%,8.964% and 7.902% and 11.0435%,14.4055% and 11.5364% and 18.402%,27.4779% and 24.0778% and 33.4848%,47.0158% and 47.2468% and 36.2572%,75.1367% and 61.8367% and 63.2191%
CC[C@H](C)[C@H](NC(=O)[C@H](C)NC(=O)[C@H](CO)NC(=O)[C@H](CCCNC(=N)N)NC(=O)[C@H](CC(N)=O)NC(=O)[C@H](CC(N)=O)NC(=O)[C@H](Cc1ccc(O)cc1)NC(=O)CNC(=O)[C@H](CO)NC(=O)CNC(=O)[C@H](CCCNC(=N)N)NC(=O)[C@H](CCCNC(=N)N)NC(=O)[C@H](CCCNC(=N)N)NC(=O)[C@H](CCC(N)=O)NC(=O)[C@H](CCCNC(=N)N)NC(=O)[C@H](CCCNC(=N)N)NC(=O)[C@H](CCCCN)NC(=O)[C@H](CCCCN)NC(=O)[C@H](CCCNC(=N)N)NC(=O)CNC(=O)[C@@H](N)Cc1ccc(O)cc1)C(=O)NCC(=O)N[C@@H](CC(N)=O)C(=O)N[C@H](C(=O)N[C@H](C(=O)N[C@@H](CCC(=O)O)C(=O)N[C@@H](C)C(=O)N[C@@H](CC(C)C)C(=O)N[C@@H](Cc1ccccc1)C(=O)N[C@@H](CCC(N)=O)C(=O)O)[C@@H](C)CC)[C@@H](C)O [YQ],1960,5.8298% and 7.33% and 11.0089%,15.102% and 10.7124% and 13.3881%,23.6157% and 20.9642% and 29.1606%,30.9365% and 28.1124% and 32.0401%,62.0331% and 53.8159% and 52.1987%,80.0886% and 71.2711% and 87.578%
YGRKKRRQRRRGSGAIGNTIEALFQ [AQ],2990,9.888% and 7.506% and 5.9715%,15.9607% and 11.702% and 12.6022%,26.3573% and 23.7158% and 19.5264%,33.3847% and 31.7366% and 38.7678%,58.9642% and 46.161% and 41.3092%,51.0435% and 51.8675% and 69.1952%
YGRKKRRQRRRGSGGNTIEALFQ [GQ],1780,7.219% and 10.3851% and 5.4678%,14.8883% and 12.0678% and 14.91%,28.8333% and 30.5125% and 26.48%,43.1263% and 40.6161% and 31.07%,51.8367% and 58.9472% and 57.2507%,71.5094% and 77.9438% and 84.7439%
YGRKKRRQRRRGSGIEALFQ [IEQ],2480,11.724% and 8.44% and 7.627%,18.8643% and 15.5487% and 10.6223%,20.7161% and 25.7224% and 19.5166%,33.6936% and 35.484% and 28.4286%,45.6995% and 48.4526% and 57.4377%,69.4739% and 61.3527% and 68.272%
YGRKKRRQRRRGSGIGNTIEALFQ [IQ],1640,12.0331% and 13.5849% and 7.368%,18.7401% and 22.4297% and 22.9573%,26.0539% and 31.1744% and 34.8606%,41.6022% and 42.578% and 47.4848%,55.7952% and 50.9781% and 60.5503%,73.2884% and 68.7332% and 83.2884%
YGRKKRRQRRRGSGNTIEALFQ [NTQ],2280,2.654% and 4.744% and 5.743%,14.83% and 10.2542% and 13.3898%,20.84% and 30.339% and 24.339%,39.17% and 47.6271% and 50.8202%,45.42% and 51.9492% and 59.661%,68.27% and 52.5424% and 61.6949%
YGRKKRRQRRRGSGTIEALFQ [TQ],1760,3.314% and 5.356% and 7.23%,–,33.3736% and 28.4011% and 30.3085%,35.3209% and 40.3898% and 46.2471%,59.3508% and 67.3559% and 55.2235%,71.3029% and 65.3559% and 69.2301%
